{
  "source": "paper PMC7486280",
  "about": "(Journal of medicinal chemistry, 2020)",
  "key": {"NTMT1 [1]": {"molecular_target": "T1, NTMT1 (Homo sapiens, UniProt Q9BV86)", "T1 sequence (Q9BV86 1-223)": "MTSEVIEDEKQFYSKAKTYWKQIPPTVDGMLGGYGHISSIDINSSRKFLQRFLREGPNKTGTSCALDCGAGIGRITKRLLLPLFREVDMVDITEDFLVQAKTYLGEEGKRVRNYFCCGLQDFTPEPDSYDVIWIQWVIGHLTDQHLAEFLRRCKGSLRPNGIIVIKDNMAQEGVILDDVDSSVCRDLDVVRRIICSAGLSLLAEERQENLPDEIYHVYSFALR", "assay": "SAH hydrolase", "type": "biochemical", "details": "for fold loss in inhibition compared to 6 (BM30): IC50 ratio vs BM30; for inhibitory activity for NTMT1 (in words): up to 100 μM"}, "PRMT1": {"molecular_target": "PRMT1 (Homo sapiens, UniProt Q99873)", "sequence (Q99873 whole entry, species assumed)": "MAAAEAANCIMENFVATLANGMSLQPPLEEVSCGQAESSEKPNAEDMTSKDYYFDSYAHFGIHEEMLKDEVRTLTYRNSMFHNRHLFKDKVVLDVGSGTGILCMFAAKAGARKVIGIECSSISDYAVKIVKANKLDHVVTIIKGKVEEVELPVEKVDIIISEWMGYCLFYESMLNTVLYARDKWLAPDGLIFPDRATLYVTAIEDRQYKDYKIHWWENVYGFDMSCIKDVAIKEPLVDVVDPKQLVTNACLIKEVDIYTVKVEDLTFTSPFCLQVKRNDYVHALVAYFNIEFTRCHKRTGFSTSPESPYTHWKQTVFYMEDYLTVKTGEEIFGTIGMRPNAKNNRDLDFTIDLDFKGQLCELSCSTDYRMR", "assay": "SAH hydrolase-coupled fluorescence selectivity assay, PRMT1", "type": "biochemical"}, "NTMT1 [2]": {"molecular_target": "T1, NTMT1", "assay": "Inhibition mechanism, SAHH-coupled fluorescence assay", "type": "biochemical"}, "[3]": {"system": "panel of 41 MTases (NTMT1/2, PKMTs, PRMTs, DNMTs)", "assay": "Selectivity panel of 41 MTases", "type": "biochemical"}, "HCT116 cells": {"system": "HCT116 cells", "assay": "Cell permeability evaluation by MALDI-MS", "type": "cell-based", "details": "100 μM, listed as BM30"}, "NTMT1 [4]": {"molecular_target": "T1, NTMT1", "details": "read-out: Kd for NTMT1; peptide substrate; cited from earlier work"}, "G9a": {"molecular_target": "T2, G9a (Homo sapiens, UniProt Q96KQ7)", "T2 sequence (Q96KQ7 1-1210)": "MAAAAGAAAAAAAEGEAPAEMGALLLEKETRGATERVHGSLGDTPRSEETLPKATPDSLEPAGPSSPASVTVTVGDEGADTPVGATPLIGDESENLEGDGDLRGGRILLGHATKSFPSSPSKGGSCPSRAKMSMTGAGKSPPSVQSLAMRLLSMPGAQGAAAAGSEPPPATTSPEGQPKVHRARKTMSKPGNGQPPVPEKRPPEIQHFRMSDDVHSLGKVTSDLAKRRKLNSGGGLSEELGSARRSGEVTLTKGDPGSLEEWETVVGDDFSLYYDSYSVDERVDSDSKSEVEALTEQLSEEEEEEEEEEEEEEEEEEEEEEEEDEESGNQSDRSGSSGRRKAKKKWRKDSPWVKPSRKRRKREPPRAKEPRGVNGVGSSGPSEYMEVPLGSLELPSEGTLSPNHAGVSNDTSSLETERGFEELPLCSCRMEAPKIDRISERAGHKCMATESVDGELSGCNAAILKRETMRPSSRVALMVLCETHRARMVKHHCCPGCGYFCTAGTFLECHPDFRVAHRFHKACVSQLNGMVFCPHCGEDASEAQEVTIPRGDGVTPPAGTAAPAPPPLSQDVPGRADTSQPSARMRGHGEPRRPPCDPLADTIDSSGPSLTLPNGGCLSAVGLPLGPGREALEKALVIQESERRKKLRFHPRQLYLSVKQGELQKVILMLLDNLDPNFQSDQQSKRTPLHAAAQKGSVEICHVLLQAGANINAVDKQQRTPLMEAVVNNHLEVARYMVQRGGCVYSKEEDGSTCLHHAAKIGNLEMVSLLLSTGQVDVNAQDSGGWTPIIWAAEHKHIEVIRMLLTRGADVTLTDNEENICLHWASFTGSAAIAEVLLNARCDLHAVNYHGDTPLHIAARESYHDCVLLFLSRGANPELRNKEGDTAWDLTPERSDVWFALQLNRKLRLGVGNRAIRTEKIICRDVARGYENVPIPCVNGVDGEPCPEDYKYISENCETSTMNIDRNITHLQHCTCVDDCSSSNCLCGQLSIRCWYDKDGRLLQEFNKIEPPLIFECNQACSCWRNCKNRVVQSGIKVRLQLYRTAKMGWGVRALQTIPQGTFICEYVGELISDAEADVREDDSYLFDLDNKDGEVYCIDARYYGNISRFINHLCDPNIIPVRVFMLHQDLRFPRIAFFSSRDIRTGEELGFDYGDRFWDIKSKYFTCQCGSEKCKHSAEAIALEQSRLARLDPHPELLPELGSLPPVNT", "assay": "SAH hydrolase-coupled fluorescence selectivity assay, G9a", "type": "biochemical"}},
  "note": "pIC50, pKd: −log10 of the molar value. Where a SMILES comes first, the peptide text is derived from it. [ ]: non-standard residue; d: D form. The star is where a group is joined. ξ: configuration not given here. ξαMeP = CC1(C(=O)O)CCCN1; PhAc = O=C(Cc1ccccc1)*",
  "data": [
    {"compound": "NCCCC[C@H](NC(=O)[C@@H]1CCCN1C(=O)Cc1ccc(O)cc1)C(=O)NCC(N)=O", "note": "[Compound 20]", "values": [
      {"measurement": "fold loss in inhibition compared to 6 (BM30)", "setting": "NTMT1 [1]", "value": "~14", "unit": "fold"}
    ]},
    {"compound": "NCCCC[C@H](NC(=O)[C@@H]1CCCN1C(=O)Cc1ccc(O)cc1)C(N)=O", "note": "[Compound 21]", "values": [
      {"measurement": "fold loss in inhibition compared to 6 (BM30)", "setting": "NTMT1 [1]", "value": 18, "unit": "fold"}
    ]},
    {"compound": "C[C@H](NC(=O)[C@H](CCCCN)NC(=O)[C@@H]1CCCN1C(=O)Cc1ccc(O)cc1)C(N)=O", "note": "[Compound 19]", "values": [
      {"measurement": "fold loss in inhibition compared to 6 (BM30)", "setting": "NTMT1 [1]", "value": 5, "unit": "fold"}
    ]},
    {"compound": "N=C(N)NCCC[C@H](NC(=O)[C@H](CCCCN)NC(=O)[C@@H]1CCCN1C(=O)Cc1ccc(O)cc1)C(N)=O", "note": "[Compound 6]", "values": [
      {"measurement": "fold increased activity compared to 5", "setting": "NTMT1 [1]; IC50 ratio vs compound 5", "value": "approximately 7 fold"},
      {"measurement": "pIC50", "setting": "PRMT1", "value": "< 4.00"},
      {"measurement": "inhibition pattern with respect to peptide substrate RCC1-6 (SPKRIA)", "setting": "NTMT1 [2]; varying RCC1-6, fixed SAM", "value": "competitive"},
      {"measurement": "inhibition pattern with respect to cofactor SAM", "setting": "NTMT1 [2]; varying SAM, fixed RCC1-6", "value": "noncompetitive"},
      {"measurement": "inhibition of NTMT1 versus NTMT2 in the panel", "setting": "[3]; 100 μM", "value": "comparable inhibition against both NTMT1 and NTMT2"},
      {"measurement": "inhibition against the remaining 39 MTases", "setting": "[3]; 100 μM, duplicates", "value": "very marginal inhibition"},
      {"measurement": "selectivity for NTMT1/2 over other MTases of the panel", "setting": "[3]; compared to PKMTs, PRMTs and DNMTs", "value": "over 100 fold"},
      {"measurement": "cellular level / penetration by MS detection", "setting": "HCT116 cells", "value": "did not display any"}
    ]},
    {"compound": "N=C(N)NCCC[C@H](NC(=O)[C@H](CCCCN)NC(=O)[C@@H]1CCCN1CCc1ccc(O)cc1)C(N)=O", "note": "[Compound 12]", "values": [
      {"measurement": "inhibitory activity for NTMT1 (in words)", "setting": "NTMT1 [1]", "value": "did not show any inhibitory activity"}
    ]},
    {"compound": "CC1(C(=O)N[C@@H](CCCCN)C(=O)N[C@@H](CCCNC(=N)N)C(N)=O)CCCN1C(=O)Cc1ccccc1", "note": "(stereo partly drawn) [Compound 13] (PhAc-[ξαMeP]-Lys-Arg-NH2)", "values": [
      {"measurement": "inhibitory activity for NTMT1 (in words)", "setting": "NTMT1 [1]", "value": "completely lost the inhibitory activity"}
    ]},
    {"compound": "YPKRIA", "values": [
      {"measurement": "pKd", "setting": "NTMT1 [4]", "value": 7.00}
    ]},
    {"compound": "N=C(N)NCCC[C@H](NC(=O)[C@H](CCCCN)NC(=O)[C@@H]1CCCN1C(=O)CCc1ccc(O)cc1)C(N)=O", "note": "[Compound 10]", "values": [
      {"measurement": "fold loss in inhibition compared to 6 (BM30)", "setting": "NTMT1 [1]", "value": 5, "unit": "fold"}
    ]},
    {"compound": "NCCCC[C@H](NC(=O)[C@H](CCCCN)NC(=O)[C@@H]1CCCN1C(=O)Cc1ccc(O)cc1)C(N)=O", "note": "[Compound 17]", "values": [
      {"measurement": "inhibitory activity for NTMT1 (in words)", "setting": "NTMT1 [1]", "value": "negligible difference in inhibition compared to BM30"}
    ]},
    {"compound": "N=C(N)NCCC[C@H](NC(=O)[C@H](CCCCN)NC(=O)c1cccc(NC(=O)Cc2ccc(O)cc2)c1)C(N)=O", "note": "[Compound 14]", "values": [
      {"measurement": "inhibitory activity for NTMT1 (in words)", "setting": "NTMT1 [1]", "value": "did not exhibit any inhibitory activity"}
    ]},
    {"compound": "C[C@@H](O)[C@H](NC(=O)[C@H](CCCCN)NC(=O)[C@@H]1CCCN1C(=O)Cc1ccc(O)cc1)C(N)=O", "note": "[Compound 18]", "values": [
      {"measurement": "fold loss in inhibition compared to 6 (BM30)", "setting": "NTMT1 [1]", "value": 5, "unit": "fold"}
    ]},
    {"compound": "N=C(N)NCCC[C@H](NC(=O)[C@H](CCCCN)NC(=O)c1ccccc1NC(=O)Cc1ccc(O)cc1)C(N)=O", "note": "[Compound 15]", "values": [
      {"measurement": "inhibitory activity for NTMT1 (in words)", "setting": "NTMT1 [1]", "value": "did not exhibit any inhibitory activity"}
    ]},
    {"compound": "N=C(N)NCCC[C@H](NC(=O)[C@H](CCCCN)NC(=O)[C@@H]1CCCN1C(=O)CCc1ccc(N)cc1)C(N)=O", "note": "[Compound 11]", "values": [
      {"measurement": "fold loss in inhibition compared to parent compound 7", "setting": "NTMT1 [1]; IC50 ratio vs compound 7", "value": 3, "unit": "fold"}
    ]},
    {"compound": "N=C(N)NCCC[C@@H](NC(=O)[C@H](CCCCN)NC(=O)[C@@H]1CCCN1C(=O)Cc1ccc(O)cc1)C(N)=O", "note": "[Compound 22]", "values": [
      {"measurement": "inhibition for G9a (in words)", "setting": "G9a", "value": "exhibited inhibition"}
    ]}
  ]
}
